Data set [1] deals with RG2. Nature of the data set: Induction of DNA damage in rat RG2 cells assessed as ATM phosphorylation at ser1981 residues at 112.4 uM after 48 hrs by Western blot analysis (reference value: 1). The class given is functional.
The nature of data set [2]: Effect on AKT expression in human DBTRG-05MG cells at 112.4uM after 48 hrs in presence of TMZ by Western blot analysis (reference value: 1). The class given is functional.
Data set [3] concerns DBTRG-05MG. The data set can be described thus: Induction of cell cycle arrest in human DBTRG-05MG cells assessed as accumulation at G0/G1 phase at 112.4 uM after 6 hrs by propidium iodide staining based flow cytometric analysis (reference value: 47.16 +/- 1.55%). The class given is functional.
For data set [4], the system named is RG2. The data set can be described thus: Induction of apoptosis in rat RG2 cells assessed as phosphorylated caspace-3 expression at 112.4 uM after 48 hrs by Western blot analysis (reference value: 1). The class given is functional.
Data set [5] deals with DBTRG-05MG. Nature of the data set: Induction of apoptosis in human DBTRG-05MG cells assessed as Bcl2 expression at 112.4 uM after 48 hrs by Western blot analysis (reference value: 1). Type of data set: functional.
Data set [6] deals with DBTRG-05MG. The data set can be described thus: Induction of apoptosis in human DBTRG-05MG cells assessed as phosphorylated PARP expression at 112.4 uM after 48 hrs in presence of TMZ by Western blot analysis (reference value: 1). The class given is functional.
In data set [7] the test system is RG2. Nature of the data set: Induction of cell cycle arrest in rat RG2 cells assessed as CDK4 expression at 112.4 uM after 48 hrs in presence of TMZ by Western blot analysis (reference value: 1). Type of data set: functional.
Data set [8] deals with DBTRG-05MG. Nature of the data set: Potentiation of TMZ-induced antitumor activity against human DBTRG-05MG cells xenografted in BALB/c nude mouse assessed as increase in apoptotic cells at 75 mg/kg, sc co-treated with TMZ for 18 days by TUNEL assay. The class given is functional, organism-based. Conditions: time 18.0 day.
Data set [9] deals with DBTRG-05MG. Nature of the data set: Induction of apoptosis in human DBTRG-05MG cells assessed as phosphorylated caspace-3 expression at 112.4 uM after 48 hrs by Western blot analysis (reference value: 1). Type of data set: functional.
In data set [10] the test system is DBTRG-05MG. Nature of the data set: Synergistic cytotoxicity against human DBTRG-05MG cells assessed as synergistic effect index at 112.4 uM after 48 hrs in presence of 103 uM TMZ by MTT assay. Type of data set: functional.
Data set [11] in a line: Synergistic cytotoxicity against rat CTX TNA2 cells assessed as synergistic effect index at 134.9 uM after 48 hrs in presence of 103 uM TMZ by MTT assay. Type of data set: cell-based. Conditions: ctx tna2, 48 h.
Data set [12] in a line: Inhibition of TMZ-induced drug resistance in rat RG2 cells assessed as MDR1 expression at 112.4 uM after 48 hrs by Western blot analysis (reference value: 5.3). The class given is functional.
Data set [13] can be described thus: Effect on p38 expression in rat RG2 cells at 206 uM after 48 hrs by Western blot analysis (reference value: 1). Type of data set: functional.
Data set [14] has as its system RG2. Nature of the data set: Induction of DNA damage in rat RG2 cells assessed as H2A.X phosphorylation at ser139 at 206 uM after 48 hrs by Western blot analysis (reference value: 1). The class given is functional.
In data set [15] the test system is RG2. Nature of the data set: Induction of apoptosis in rat RG2 cells assessed as cleaved PARP expression at 206 uM after 48 hrs by Western blot analysis (reference value: 1). Type of data set: functional.

Active and inactive are the calls of the source. The calls are words filed in the database; no cut-off is given here.

Consider `C[C@@H]1CC[C@H]2C(C)(C)[C@H]3C[C@@]12CC[C@@]3(C)O` [CEDROL], for which the “fold change (FC)” value with RG2 [1] is given as 1; in [2] it was 0.6; with RG2 [4], 1.1; in the data set with DBTRG-05MG [5], 1.3; in the data set with DBTRG-05MG [6] it was 0.4; in the data set with RG2 [7], 0.5. Also, the “fold change (FC)” value came to 1.1 with DBTRG-05MG [9] and 2 in [12]. Also, in the data set on DBTRG-05MG [3], the Activity came to 53.26%. For the same molecule, in the data set with DBTRG-05MG [8], the result was Active. Also, the Activity_index came to 0.84 with DBTRG-05MG [10] and 0.28 in [11].
Consider `Cn1nnc2c(C(N)=O)ncn2c1=O` [TEMOZOLOMIDE], for which the “fold change (FC)” value worked out at 0.7 in data set [13], 1.1 with RG2 [14] and 1.5 with RG2 [15].

Values taken from ChEMBL document CHEMBL4699511, “Cedrol, a Sesquiterpene Alcohol, Enhances the Anticancer Efficacy of Temozolomide in Attenuating Drug Resistance via Regulation of the DNA Damage Response and MGMT Expression” (J Nat Prod, 2020).
